Reference: patent US20050220900A1, “Use of extracts containing phytoestrogen selectively modulating estrogen-receptor-beta” (priority 2002, published 2005)

How the values were obtained:
[1] = test system: human granulosa/luteal cells; assay: progesterone secretion of human granulosa/luteal cells; type: cell-based; details: 5-hour incubation, 1 μM
Text: Luteal cell cultures are an established test method for the paracrine effect of steroids. Such cells are not available from humans, since all surgical procedures in which biopsies can be taken are always performed at the follicular phase to avoid the risk of an undetected pregnancy. However, these granulosa/luteal cells become available in the course of in vitro fertilization programs and are maintained in culture, and they behave very much like luteal cells in terms of receptor population and secretory function. An estrogenic effect of vitex agnus castus was tested with this human in vitro testing system. […] FIG. 5: […] The * indicates a significant deviation from the (culture) medium control. FIG. 6 summarizes the effect of vitex agnus castus extracts upon progesterone secretion under this testing system after a 5-hour incubation.

porcine luteal cells = assay: progesterone secretion of porcine luteal cells; type: cell-based; details: anti-estrogen alone
Description: To reinforce this conclusion, the cells were incubated with vitex agnus castus extract along with the anti-estrogen tamoxifen.

Structure (SMILES) | effect on progesterone secretion [1] | effect on progesterone excretion, tamoxifen alone (porcine luteal cells)
C[C@]12CC[C@@H]3c4ccc(O)cc4CC[C@H]3[C@@H]1CC[C@H]2O [17-alpha estradiol, estradiol 17-alpha] | no effect | –
CC/C(=C(\c1ccccc1)c1ccc(OCCN(C)C)cc1)c1ccccc1 [tamoxifen] | – | without effect
